PubChem BioAssay AID434987 (Southern Research Specialized Biocontainment Screening …, 2010)
Activity calls are given as the source filed them. The rule behind the calls is not given here.

Tested on: M. tuberculosis H37Rv growth inhibition with meropenem
Test: dose response, H37Rv, with and without meropenem (AID 434987);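 note: growth over 7 days at 37 °C before Alamar Blue read on day 9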
[1] = M. tuberculosis H37Rv growth inhibition, measured here: IC50 without meropenem
[2] = M. tuberculosis H37Rv growth inhibition, measured here: IC90 without meropenem
[3] = measured here: IC90 with meropenem

Row | SMILES | IC50 | IC50 [1] [µM] | IC90 [2] [µM] | IC90 [3] [µM]
1 | O=C(CCCCCN1C(=O)c2cccc([N+](=O)[O-])c2C1=O)Nc1ccccc1F | 10.2 µM | > 100 | > 100 | 44.1
2 | CC(=O)Nc1ccc(SCC(=O)c2cc(C)n(C)c2C)cc1 | 47 µM (inactive) | 57.3 | > 100 | 53.6
3 | O=C(CSCC(=O)Nc1ccccc1)N/N=C/c1c(O)ccc2ccccc12 | 31.9 µM | > 100 | > 100 | > 100
4 | CN1C/C(=N\S(=O)(=O)c2ccccc2)N(C)C1=O | 13 µM (inactive) | 23.6 | 46.7 | 33.7
5 | CCn1nc(C)c([N+](=O)[O-])c1C(=O)NNC(=O)c1ccccc1Cl | > 100 µM (inactive) | > 100 | > 100 | > 100
6 | CC(=O)c1ccc(OCCCC(=O)OCC(=O)N2CCN(c3ccccc3)CC2)cc1 | 78.7 µM (inactive) | > 100 | > 100 | > 100
7 | O=C(Cn1c(=O)c2cccn2c2ccccc21)NCCc1ccc(Cl)cc1 | > 100 µM (inactive) | > 100 | > 100 | > 100
8 | CCCCC(=O)NC(=S)Nc1ccc(NC(=O)C(C)C)c(OC)c1 | 99.9 µM (inactive) | > 100 | > 100 | > 100
9 | CCOC(=O)/C=C/c1ccc2c(c1)S(=O)(=O)N(Cc1ccc(OC)cc1)[C@H]2CC(=O)OCC | > 100 µM (inactive) | > 100 | > 100 | > 100
10 | O=C(/C=C/c1ccccc1)NC1CC2CCC1C2 (configuration not stated) | > 100 µM (inactive) | > 100 | > 100 | > 100
11 | COc1ccc(-c2sc3cc(OC)c(OC)cc3c2C#CCCO)cc1 | > 100 µM (inactive) | > 50 | > 50 | > 100
12 | CCN(CC)c1ccc(C=N/C(C#N)=C(\N)C#N)cc1 | 16.9 µM | > 100 | > 100 | > 100
13 | Cn1c(=O)c2[nH]c(CNCc3ccccc3Cl)nc2n(C)c1=O | 37.1 µM | > 100 | > 100 | > 100
14 | CN(c1ccc(OCC(=O)OCC(=O)c2c(N)n(C)c(=O)n(C)c2=O)cc1)S(=O)(=O)c1ccc2ccccc2c1 | 26.2 µM | > 100 | > 100 | > 100
15 | COc1cc(NC(=O)C2CCCCC2)c(OC)cc1NC(=O)CN1CCCCC1 | 9.28 µM | 47.4 | > 100 | > 100
16 | O=c1oc(-c2ccccc2)nc2sc3c(c12)CCC3 | 32.2 µM | > 100 | > 100 | > 100
17 | COc1cccc(/C=N/NC(=O)NC23CC4CC(CC(C4)C2)C3)c1O | 2.93 µM | 46.9 | > 100 | 26.8
18 | Cn1c(/C=C/c2ccc(Br)cc2)c([N+](=O)[O-])c(=O)n(C)c1=O | > 100 µM (inactive) | > 100 | > 100 | > 100
19 | CCCC(=O)Nc1ccc(NC(=S)NC(=O)c2cccs2)cc1 | > 100 µM (inactive) | > 100 | > 100 | > 100
20 | Cc1ccc2c(Cl)cc(Cl)c(OCc3c(C)noc3C)c2n1 | 25.3 µM | > 100 | > 100 | > 100

Row | SMILES | IC50 | IC50 [1] [µM] | IC90 [2] [µM] | IC90 [3] [µM]
21 | Cc1ccc(C2=N/C(=C\c3cccc(F)c3)C(=O)O2)cc1 | 1.49 µM | 7.03 | 79.6 | 4.02
22 | Cc1ccc(/C=C2/SC(=S)N(CC(=O)Nc3ncc(Cc4ccc(C)cc4)s3)C2=O)cc1 | > 100 µM (inactive) | > 100 | > 100 | > 100
23 | Cc1ccc(-n2nnnc2Sc2nc([N+](=O)[O-])nn2C)c(C)c1 | 16.5 µM | 50.4 | > 100 | > 100
24 | COc1ccc(NCC(=O)N/N=C/C(C)c2ccccc2)cc1 (configuration not stated) | > 100 µM (inactive) | > 100 | > 100 | > 100
25 | CN(c1ccc(C(=O)Nc2ccccc2Sc2ccccc2)cc1)S(C)(=O)=O | > 100 µM (inactive) | > 100 | > 100 | > 100
26 | O=C(CN1C(=O)c2cccc([N+](=O)[O-])c2C1=O)N1CCN(c2ccc(F)cc2)CC1 | 58.6 µM (inactive) | 91.4 | > 100 | 74.5
27 | Cc1ccc(C)c(NC(=O)C(Sc2nc3ccccc3c(=O)n2CC(C)C)c2ccccc2)c1 (configuration not stated) | 58.8 µM (inactive) | > 100 | > 100 | > 100
28 | CCCc1cc(NC(=O)COC(=O)c2nccnc2N)n(-c2ccccc2)n1 | 49.3 µM (inactive) | 68.4 | > 100 | 50.8
29 | COc1cccc(/C=N/NC(=O)c2cnccn2)c1O | 2.58 µM | 44.8 | > 100 | 13.9
30 | COc1ccc([N+](=O)[O-])cc1NS(=O)(=O)c1ccc(Cl)c(C(=O)Nc2sc3c(c2C#N)CCCCC3)c1 | > 100 µM (inactive) | > 100 | > 100 | > 100
31 | c1ccc(-c2cc3ccccc3[nH]2)cc1 | > 100 µM (inactive) | > 100 | > 100 | > 100
32 | CCCCNC(=O)/C(=C/c1ccccc1)NC(C)=O | > 100 µM (inactive) | > 100 | > 100 | > 100
33 | CC(=O)Nc1ccc(Nc2ncc([N+](=O)[O-])c(Nc3ccc(NC(C)=O)cc3)n2)cc1 | 0.423 µM | 2.43 | > 100 | 45.5
34 | O=c1oc(-c2cccs2)nc2sc3c(c12)CCCC3 | 22.2 µM | > 100 | > 100 | 29.7
35 | O=C(Nc1nnc(-c2ccco2)o1)c1ccc(S(=O)(=O)N2CCOCC2)cc1 | 24.5 µM | 63.5 | > 100 | > 100
36 | O=C(NC1CCCCC1)C1CCN(c2nccs2)CC1 | 40.2 µM | > 100 | > 100 | > 100
37 | C[C@@H]1CC=C[C@H]2[C@H]1C(=O)N(Cc1ccccc1)[C@H]2c1ccc(/C=C/c2ccccc2)cc1F | > 100 µM (inactive) | > 100 | > 100 | > 100
38 | CSc1ncnc2c1ccn2CC(=O)Nc1ccc(C)c(C)c1 | 8.44 µM | > 100 | > 100 | > 25
39 | CC1CCCN(C(=O)C2CCN(c3ncnc4c3nc3n4CCCCC3)CC2)C1 (configuration not stated) | 46.7 µM (inactive) | 89.8 | > 100 | 49.7
40 | CCOC(=O)c1ccc(N2CN(C3CCCCC3)CNC2=S)cc1 | 35.4 µM | > 100 | > 100 | > 100

Row | SMILES | IC50 | IC50 [1] [µM] | IC90 [2] [µM] | IC90 [3] [µM]
41 | CCOc1cc(N2CCOCC2)c(OCC)cc1NC(=O)COc1cccc(CC)c1 | > 100 µM (inactive) | > 100 | > 100 | > 100
42 | COc1ccc(C2C(C#N)=C(SCC(=O)Nc3ccc(C)cc3)NC3=C2C(=O)CC(C)(C)C3)cc1 (configuration not stated) | 94.3 µM (inactive) | > 100 | > 100 | > 100
43 | O=C(CCNc1ccccc1)c1cccc([N+](=O)[O-])c1 | 11.7 µM | > 100 | > 100 | 45.8
44 | Cc1cccc(NC(=O)Cn2c(=O)n(Cc3ccccc3)c(=O)c3c(C)c(C)sc32)c1 | > 100 µM (inactive) | > 100 | > 100 | > 100
45 | C#CCOc1c(Cl)cc(/C=N/NC(N)=S)cc1OCC | 87.6 µM (inactive) | > 100 | > 100 | > 100
46 | CC(C)(C)[C@@H]1C=C(C(=O)Nc2ccccc2)O[C@H](OCc2ccc(CO)cc2)C1 | 75 µM (inactive) | 93.1 | > 100 | > 100
47 | COc1ccc(Br)cc1/C=N/NC(=O)CNC(=O)/C=C/c1ccccc1 | > 100 µM (inactive) | > 100 | > 100 | > 100
48 | Fc1ccc(-c2csc(NC(=S)Nc3ccccc3)n2)cc1 | 7.55 µM | > 100 | > 100 | > 50
49 | O=C(Nc1ccc2oc(-c3ccc(Cl)c(Cl)c3)nc2c1)c1ncn[nH]1 | 61.9 µM (inactive) | 79.8 | > 100 | > 100
50 | O=C(OCC(=O)c1ccc[nH]1)C1=COCCO1 | 18.3 µM | 88.8 | > 100 | > 100
51 | O=C(/C=C/c1ccc2c(c1)OCO2)Nc1nc2ccccc2s1 | > 100 µM (inactive) | > 100 | > 100 | > 100
52 | NC(=S)N/N=C/c1cccc(/C=N/NC(N)=S)c1 | 25 µM | > 100 | > 100 | > 100
53 | COc1ccc(OC)c(-c2cc(C(=O)Nc3c(C)n(C)n(-c4ccccc4)c3=O)no2)c1 | 17.1 µM | 54 | > 100 | 49.5
54 | Cc1ccc(NC(=S)Nc2ncccc2C)c(C)c1 | 46.2 µM (inactive) | 97.1 | > 100 | > 100
55 | COCCOC(=O)c1c(C)oc2ccc(OC(=O)c3c(OC)cccc3OC)cc12 | > 100 µM (inactive) | > 100 | > 100 | > 100
56 | C/C(=N\NC(=O)c1cc(Br)ccc1O)c1ccccn1 | 3.88 µM | 94.9 | > 100 | > 100
57 | CC(=O)NC(=S)Nc1ccc(NC(=O)c2cccs2)cc1 | 48.7 µM (inactive) | > 100 | > 100 | > 100
58 | CCN(CC)c1ccc(C(=O)n2cnc3ccccc32)cc1 | 70.3 µM (inactive) | 91.6 | > 100 | > 100
